Laboratory results: patent US7763644B2, “Imidazole derivatives, processes for preparing them and their uses” (UCB Pharma, S.A., priority 2003, dated 2010)
Entries after “also recorded” stand apart in the source; their conditions may differ.

Assays:
LBS/SV2A = biological target: T1, LBS/SV2A (Rattus norvegicus, UniProt Q02563); test: Photolabelling of LBS in rat brain membranes, SDS-PAGE; assay type: binding; settings: UV irradiated rat brain membranes, gel slicing
T1 construct: from tissue; host or cells: rat brain (crude membranes)
Source text: Y-axis represents the radioactivity (DPM) in gel slices and X-axis represents the gel slice number. Each number and arrow in the graph represents the position and the size in kilodaltons of molecular weight standards.
This example provides a photoactivable ligand for labelling SV2A/LBS and its detection in biological samples. This ligand was designed to cross-link to the LBS/SV2A with an azidophenyl motif capable of forming a covalent complex with the protein upon UV light irradiation.

hSV2C [1] = biological target: T2, hSV2C (Homo sapiens, UniProt Q496J9); test: Radioligand binding to COS-7 cells transfected with SV2C; settings: displaced by excess levetiracetam, FIG. 5
T2 construct: expressed in transfected cells; host or cells: COS-7 (transient transfection)
T2 sequence (Q496J9 1-727): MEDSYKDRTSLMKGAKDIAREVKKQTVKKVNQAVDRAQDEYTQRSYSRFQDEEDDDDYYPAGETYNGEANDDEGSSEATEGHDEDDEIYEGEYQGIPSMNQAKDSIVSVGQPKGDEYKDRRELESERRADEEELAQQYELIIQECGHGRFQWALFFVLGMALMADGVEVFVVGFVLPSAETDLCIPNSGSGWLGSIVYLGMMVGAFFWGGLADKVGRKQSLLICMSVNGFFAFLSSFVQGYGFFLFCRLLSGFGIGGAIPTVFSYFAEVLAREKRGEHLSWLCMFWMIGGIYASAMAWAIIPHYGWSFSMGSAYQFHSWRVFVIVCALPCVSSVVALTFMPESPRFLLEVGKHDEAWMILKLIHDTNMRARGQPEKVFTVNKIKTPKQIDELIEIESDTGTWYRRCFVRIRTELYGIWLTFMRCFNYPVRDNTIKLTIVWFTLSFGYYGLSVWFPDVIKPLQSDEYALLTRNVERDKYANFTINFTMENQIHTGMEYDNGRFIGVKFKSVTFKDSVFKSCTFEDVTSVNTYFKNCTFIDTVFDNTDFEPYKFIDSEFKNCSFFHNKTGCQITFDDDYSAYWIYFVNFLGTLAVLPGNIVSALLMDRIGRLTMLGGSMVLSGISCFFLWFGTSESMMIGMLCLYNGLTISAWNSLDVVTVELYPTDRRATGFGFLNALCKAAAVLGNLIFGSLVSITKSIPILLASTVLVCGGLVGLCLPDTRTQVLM
Source text: (§1) This confirms that labeled-compound Z has poor affinity for utilizing as a probe against SV2C, and that labeled-compound 7 is a preferred probe to utilize in screening against SV2C.

untransfected cells = test: Radioligand binding to untransfected COS-7 cells; settings: FIG. 5, bars 2
human SV2A = human SV2A (Homo sapiens, UniProt Q7L0J3); test: Radioligand binding to SV2A under standard conditions
Source text: as §1

LBS = biological target: T3, LBS (Rattus norvegicus, UniProt Q02563); test: Competition binding curves against [^3H]-compound 7, rat brain membranes
T3 construct: from tissue; host or cells: rat brain (crude membranes)
Description: FIGS. 2a and 2b depict competition binding curves showing that compound 7 binds to LBS with about 30 fold higher affinity than levetiracetam. […] (M). Test drugs are levetiracetam (2a) and compound 7 (2b).
Binding experiments were conducted on crude rat brain membranes at 4° C. as described in Noyer M. et al. (Euro. J. Pharmacol. (1995), 286, 137-146). Incubation time for equilibrium studies was 120 min. […] The Bmax being similar to the value estimated using [^3H]-L059 as radioligand in similar membrane preparations (5 pmol/mg protein).

hSV2C [2] = biological target: T2, hSV2C; test: IC50 of unlabelled ligands against SV2C, [^3H]-compound 7 as probe; assay type: binding; settings: [^3H]-compound 7 as labeled probe, FIG. 6
Source text: (M). Depicted are the IC50 curves of compound 7 binding to hSV2A (x) and hSV2C (□), and compound Z binding to hSV2A (▪) and hSV2C (⋄).
as §1

T3 sequence (Q02563 whole entry): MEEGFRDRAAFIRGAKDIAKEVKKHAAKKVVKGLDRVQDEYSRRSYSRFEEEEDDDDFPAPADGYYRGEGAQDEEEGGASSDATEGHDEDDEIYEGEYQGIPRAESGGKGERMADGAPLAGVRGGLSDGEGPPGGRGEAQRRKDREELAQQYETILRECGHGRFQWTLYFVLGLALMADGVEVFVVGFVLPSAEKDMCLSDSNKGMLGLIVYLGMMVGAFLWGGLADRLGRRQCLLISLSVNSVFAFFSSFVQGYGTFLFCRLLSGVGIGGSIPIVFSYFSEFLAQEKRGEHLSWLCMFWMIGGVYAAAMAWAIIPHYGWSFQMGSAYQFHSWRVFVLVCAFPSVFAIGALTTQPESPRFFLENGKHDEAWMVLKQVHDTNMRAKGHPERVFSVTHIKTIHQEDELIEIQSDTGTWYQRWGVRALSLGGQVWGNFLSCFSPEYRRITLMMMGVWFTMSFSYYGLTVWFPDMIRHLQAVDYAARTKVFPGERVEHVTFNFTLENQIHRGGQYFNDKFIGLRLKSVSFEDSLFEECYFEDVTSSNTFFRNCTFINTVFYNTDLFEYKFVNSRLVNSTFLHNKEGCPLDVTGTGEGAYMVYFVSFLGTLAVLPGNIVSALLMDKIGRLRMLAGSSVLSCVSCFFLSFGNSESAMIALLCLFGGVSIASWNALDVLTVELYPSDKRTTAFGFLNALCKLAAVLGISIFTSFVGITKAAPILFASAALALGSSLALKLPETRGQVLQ
T1 sequence (Q02563 whole entry): as above
human SV2A, sequence (Q7L0J3 whole entry): as the sequence (Q02563 whole entry) above, with E53D, A62S, A71T, D144E, T154A, S440G, A482S, V572I, L634M counted along it

[^3H]-(+)-4-(3-azido-2,4-difluorophenyl)-1-(1H-imidazol-1-ylmethyl)pyrrolidin-2-one [[^3H]-compound 7]
size of the protein the radiolabel incorporates into (LBS/SV2A): 90 kDa
binding of radioligand to SV2C expressed in COS-7 cells (hSV2C [1]): specific binding; also recorded: binds well
specific binding of radioligand in untransfected cells (untransfected cells): no specific binding

CC[C@@H](C(N)=O)N1CC(c2cccc(N=[N+]=[N-])c2)CC1=O (stereo partly drawn) [[^3H]-compound Z, reference compound]
binding of radioligand to SV2C expressed in COS-7 cells (hSV2C [1]): absence of specific binding; also recorded: lack of binding
binding of radioligand to SV2A (human SV2A): binds well

[N-]=[N+]=Nc1c(F)ccc(C2CC(=O)N(Cn3ccnc3)C2)c1F (single isomer, unassigned; (+)) [compound 7, (+)-4-(3-azido-2,4-difluorophenyl)-1-(1H-imidazol-1-ylmethyl)pyrrolidin-2-one]
fold higher affinity for LBS than levetiracetam (L059) (LBS; FIG. 2): about 30 fold
Ki (LBS; rat brain membranes): 0.0316 µM
affinity to SV2C compared with SV2A (IC50 curves) (hSV2C [2]): equivalent affinities

CC[C@@H](C(N)=O)N1CC(c2cccc(N=[N+]=[N-])c2)CC1=O (stereo partly drawn) [compound Z, (2S)-2-[4-(3-azidophenyl)-2-oxopyrrolidin-1-yl]butanamide]
affinity to SV2C compared with SV2A (IC50 curves) (hSV2C [2]): different affinities; also recorded: much weaker affinity
